From patent publication US20090263410A1, “USE OF TGF-B1 INHIBITOR PEPTIDES IN THE PREPARATION OF AN IMMUNE RESPONSE MODULATING AGENT” (Proyecto De Biomedicina Cima, S.L., priority 2005, published 2009)

Test system: lymphocyte cultures derived from nodes
Assay: Induction of T-helper response to FIS: IL-2 and IFN-γ in lymph node lymphocyte culture supernatants
Type: in vivo, BALB/c mice
Description: The FIS peptide is characterized as a T-helper determinant derived from sperm whale myoglobin, amino acids (106-118). This peptide has been widely used for the induction of antibodies against haptenic peptides. We wanted to analyse the effect of peptide p144 on the induction of a cytokine profile characterized among other things by the increase in IFN-γ and IL-12. In this model the following was administered by […] to groups of 3 female BALB/c mice, 4 to 8 weeks old, (Harlan, Barcelona), distributing the animals in the following treatments: • FIS: mice which received by […] a 1:1 emulsion of Freund's incomplete adjuvant and saline serum which contained 50 μg of FIS. • FIS+p144: mice which received by […] a 1:1 emulsion of Freund's incomplete adjuvant and saline serum which contained 50 μg of FIS and 50 μg of p144.
10 days after immunization, the animals were sacrificed and the popliteal, inguinal and periaortic lymph nodes were extracted. The nodes were homogenized with a syringe and they were washed three times at 4° C. with washing medium (clean RPMI 1640 medium). Next, the cells were resuspended in complete medium (RPMI 1640 with 10% FBS, 2 mM of glutamine, 100 U/ml of penicillin, 100 μg/ml of streptomycin, 5×10^−5 M of β-mercaptoethanol, 25 mM of Hepes and sodium pyruvate), at a concentration of 5.3×10^6 cells/ml adding 150 μl in each well of a flat-bottomed 96-well plate. The different peptide concentrations (6 and 10 μM) were added in triplicate and at a volume of […] per well. The cells were cultured in a stove at 37° C. and with 5% CO2 for two days. […] These supernatants were frozen at −20° C. until the quantification of the cytokine concentration.
The quantity of IFN-γ was measured using a commercial ELISA (Mouse IFN-γ Duoset ELISA Development System, Genzyme, Cambridge and OPTEIA Mouse IFN-γ Set, Pharmingen, San Diego, USA) in accordance with the manufacturer's instructions. The results were expressed as pg/ml of IFN-γ using a standard curve of known quantities of IFN-γ.
The quantity of IL-2 in each supernatant was measured by studying the proliferation of the CTL.L. cell line, whose growth is IL-2 dependent (Lai M. et al., 1987). […]
To perform the assay, the supernatants were cultured with 3000-5000 CTL.L. cells per well, diluted to a final volume of 100 μl. […] The radioactivity was quantified in a scintillation counter (Top Count, Microplate Scintillation Counter, Packard) after the addition of 25 μl of scintillation liquid (MICROSCINT®, Packard, Bioscience Company) per well. The results of the counts were expressed as mU/ml of IL-2, interpolating the counts of each well in a standard curve. […]

[1] = 50 μg FIS + 50 μg p144 in FIA versus FIS alone, in vitro restimulation with FIS
[2] = lymphocytes from mice immunized with FIS+p144

In the case of “p144: peptide inhibiting TGF-β1 whose amino acid sequence corresponds to SEQ ID NO: 1 (TSLDASIIWAMMQN; Synthetic Construct from human TGB-Beta1 type III receptor.Domain730-743)”, the “IFN-γ production compared to FIS” value [1] is reported as “reduced”, the “IL-2 production compared to FIS” value [1] is reported as “reduced” and the “IFN-γ production when restimulating in vitro against p144” value [2] is reported as “some production of IFN-γ”. For the same substance, the “IL-2 production when restimulating in vitro against p144” value [2] was “production of IL-2”.
